This passage reports IC50 results from patent US20260256763A1, “Aromatic Amide Derivative, And Preparation Method Therefor And Use Thereof” (Zhejiang Hisun Pharmaceutical Co., Ltd., priority 2023, published 2026).

SMILES strings stand for the structures.

One test has as its system HT-29 cells. The test is described as follows: Inhibition on HT-29 cell proliferation (CellTiter-Glo). The class given is cell-based. The conditions noted are these: Homo sapiens, HT-29 cells (TP53 R273H mutation), 120 hours.
A further test concerns OVCAR-3 cells. In words: Inhibition on OVCAR-3 cell proliferation (CellTiter-Glo). The class given is cell-based. The conditions noted are these: Homo sapiens, OVCAR-3 cells (TP53 R248Q mutation), 72 hours. The essentials:
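OVCAR-3 (TP53 R248Q) cells seeded at 1000/well overnight, then treated 72 h at 37 °C with compound at final 1000 nM–0.015 nM. CellTiter-Glo luminescence read; inhibition versus 0.3% DMSO control, IC50 by nonlinear regression on log concentration.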

As for `CCS(=O)(=O)Nc1ccc(C(=O)Nc2cc3c(c(N4CCC(F)(F)CC4)c2)OCC3)c(N2CCC3(CC2)CC3)c1` [Example 1, N-(7-(4,4-difluoropiperidin-1-yl)-2,3-dihydrobenzofuran-5-yl)-4-(ethylsulfonamido)-2-(6-azaspiro[2.5]octan-6-yl)benzamide], the half-inhibitory concentration (IC50) in the test with HT-29 cells came to 2.4 nM; in the test with OVCAR-3 cells it was 0.75 nM.
